Source: ChEMBL document CHEMBL5150034, “Design, synthesis, molecular docking and pharmacological evaluation of novel triazine-based triazole derivatives as potential anticonvulsant agents” (Bioorg Med Chem Lett, 2022)

Test system: not listed separately
Assay: Protective index, ratio of TD50 for toxicity in ip dosed mouse to ED50 for anticonvulsant activity in ip dosed mouse model of seizure
Format: organism-based
Conditions: in vivo, read-out: Ratio TD50/ED50

| SMILES | selectivity ratio |
| --- | --- |
| CC(=O)c1nnn(-c2nc(Cl)nc(Cl)n2)c1NCc1cc(F)cc(F)c1 | 2.1 |
| CC(=O)c1nnn(-c2nc(Cl)nc(Cl)n2)c1NCc1ccc(F)cc1 | 2.61 |
| Cc1ccccc1-n1c(C)nc2ccccc2c1=O [METHAQUALONE] | 1.12 |
| CC(=O)c1nnn(-c2nc(Cl)nc(Cl)n2)c1NCc1ccc(C(F)(F)F)cc1 | 3.76 |
| CCCC(CCC)C(=O)O [VALPROIC ACID] | 2.08 |
| CC(=O)c1nnn(-c2nc(Cl)nc(Cl)n2)c1NCc1ccc(Cl)cc1 | 2.38 |
| CC(=O)c1nnn(-c2nc(Cl)nc(Cl)n2)c1NCc1ccc([N+](=O)[O-])cc1 | 3.07 |

Test system: Mus musculus
Assay: Anticonvulsant activity in MES induced mouse model of seizure assessed as protection against seizure at 1 mmol/Kg, ip relative to control
Format: functional
Conditions: not given

| SMILES | Activity |
| --- | --- |
| CC(=O)c1nnn(-c2nc(Cl)nc(Cl)n2)c1NCc1cc(F)cc(F)c1 | 83% |
| CC(=O)c1nnn(-c2nc(Cl)nc(Cl)n2)c1NCc1ccc(F)cc1 | 100% |
| CC(=O)c1nnn(-c2nc(Cl)nc(Cl)n2)c1NCc1cc(F)c(F)c(F)c1 | 67% |
| COc1ccc(CNc2c(C(C)=O)nnn2-c2nc(Cl)nc(Cl)n2)cc1 | 10% |
| Cc1ccccc1-n1c(C)nc2ccccc2c1=O [METHAQUALONE] | 100% |
| CC(=O)c1nnn(-c2nc(Cl)nc(Cl)n2)c1NCc1ccc(C)cc1 | 25% |
| CC(=O)c1nnn(-c2nc(Cl)nc(Cl)n2)c1NCc1ccc(O)cc1 | 18% |
| CC(=O)c1nnn(-c2nc(Cl)nc(Cl)n2)c1NCc1ccc(C(F)(F)F)cc1 | 100% |
| CC(=O)c1nnn(-c2nc(Cl)nc(Cl)n2)c1NCc1ccccc1 | 33% |
| CCCC(CCC)C(=O)O [VALPROIC ACID] | 100% |
| CC(=O)c1nnn(-c2nc(Cl)nc(Cl)n2)c1NCc1ccc(Cl)cc1 | 100% |
| CC(=O)c1nnn(-c2nc(Cl)nc(Cl)n2)c1NCc1ccc([N+](=O)[O-])cc1 | 100% |

Test system: Mus musculus
Assay: Anticonvulsant activity in PTZ induced mouse model of seizure assessed as protection against seizure at 1 mmol/Kg, ip relative to control
Format: functional
Conditions: not given

| SMILES | Activity |
| --- | --- |
| CC(=O)c1nnn(-c2nc(Cl)nc(Cl)n2)c1NCc1cc(F)cc(F)c1 | 100% |
| CC(=O)c1nnn(-c2nc(Cl)nc(Cl)n2)c1NCc1ccc(F)cc1 | 100% |
| CC(=O)c1nnn(-c2nc(Cl)nc(Cl)n2)c1NCc1cc(F)c(F)c(F)c1 | 75% |
| COc1ccc(CNc2c(C(C)=O)nnn2-c2nc(Cl)nc(Cl)n2)cc1 | 25% |
| Cc1ccccc1-n1c(C)nc2ccccc2c1=O [METHAQUALONE] | 100% |
| CC(=O)c1nnn(-c2nc(Cl)nc(Cl)n2)c1NCc1ccc(C)cc1 | 39% |
| CC(=O)c1nnn(-c2nc(Cl)nc(Cl)n2)c1NCc1ccc(O)cc1 | 33% |
| CC(=O)c1nnn(-c2nc(Cl)nc(Cl)n2)c1NCc1ccc(C(F)(F)F)cc1 | 100% |
| CC(=O)c1nnn(-c2nc(Cl)nc(Cl)n2)c1NCc1ccccc1 | 48% |
| CCCC(CCC)C(=O)O [VALPROIC ACID] | 100% |
| CC(=O)c1nnn(-c2nc(Cl)nc(Cl)n2)c1NCc1ccc(Cl)cc1 | 100% |
| CC(=O)c1nnn(-c2nc(Cl)nc(Cl)n2)c1NCc1ccc([N+](=O)[O-])cc1 | 100% |

Test system: not listed separately
Assay: Toxicity in ip dosed mouse
Format: organism-based
Conditions: in vivo

| SMILES | TD50 |
| --- | --- |
| CC(=O)c1nnn(-c2nc(Cl)nc(Cl)n2)c1NCc1cc(F)cc(F)c1 | 0.97 mmol/kg |
| CC(=O)c1nnn(-c2nc(Cl)nc(Cl)n2)c1NCc1ccc(F)cc1 | 0.89 mmol/kg |
| Cc1ccccc1-n1c(C)nc2ccccc2c1=O [METHAQUALONE] | 1.64 mmol/kg |
| CC(=O)c1nnn(-c2nc(Cl)nc(Cl)n2)c1NCc1ccc(C(F)(F)F)cc1 | 0.79 mmol/kg |
| CCCC(CCC)C(=O)O [VALPROIC ACID] | 9.63 mmol/kg |
| CC(=O)c1nnn(-c2nc(Cl)nc(Cl)n2)c1NCc1ccc(Cl)cc1 | 0.93 mmol/kg |
| CC(=O)c1nnn(-c2nc(Cl)nc(Cl)n2)c1NCc1ccc([N+](=O)[O-])cc1 | 0.83 mmol/kg |

Test system: Mus musculus
Assay: Anticonvulsant activity in ip dosed mouse model of seizure
Format: functional
Conditions: not given

| SMILES | ED50 |
| --- | --- |
| CC(=O)c1nnn(-c2nc(Cl)nc(Cl)n2)c1NCc1cc(F)cc(F)c1 | 0.46 mmol/kg |
| CC(=O)c1nnn(-c2nc(Cl)nc(Cl)n2)c1NCc1ccc(F)cc1 | 0.34 mmol/kg |
| Cc1ccccc1-n1c(C)nc2ccccc2c1=O [METHAQUALONE] | 1.46 mmol/kg |
| CC(=O)c1nnn(-c2nc(Cl)nc(Cl)n2)c1NCc1ccc(C(F)(F)F)cc1 | 0.21 mmol/kg |
| CCCC(CCC)C(=O)O [VALPROIC ACID] | 4.61 mmol/kg |
| CC(=O)c1nnn(-c2nc(Cl)nc(Cl)n2)c1NCc1ccc(Cl)cc1 | 0.39 mmol/kg |
| CC(=O)c1nnn(-c2nc(Cl)nc(Cl)n2)c1NCc1ccc([N+](=O)[O-])cc1 | 0.27 mmol/kg |

Test system: not listed separately
Assay: Therapeutic index, ratio of LD50 for toxicity in ip dosed mouse to ED50 for anticonvulsant activity in ip dosed mouse model of seizure
Format: organism-based
Conditions: in vivo, read-out: TI

| SMILES | selectivity ratio |
| --- | --- |
| CC(=O)c1nnn(-c2nc(Cl)nc(Cl)n2)c1NCc1cc(F)cc(F)c1 | 2.21 |
| CC(=O)c1nnn(-c2nc(Cl)nc(Cl)n2)c1NCc1ccc(F)cc1 | 3.35 |
| Cc1ccccc1-n1c(C)nc2ccccc2c1=O [METHAQUALONE] | 1.4 |
| CC(=O)c1nnn(-c2nc(Cl)nc(Cl)n2)c1NCc1ccc(C(F)(F)F)cc1 | 5.61 |
| CCCC(CCC)C(=O)O [VALPROIC ACID] | 2.59 |
| CC(=O)c1nnn(-c2nc(Cl)nc(Cl)n2)c1NCc1ccc(Cl)cc1 | 2.76 |
| CC(=O)c1nnn(-c2nc(Cl)nc(Cl)n2)c1NCc1ccc([N+](=O)[O-])cc1 | 4.14 |
